Assay: Moisture uptake at 75% relative humidity, gravimetric
Format: physicochemical
Conditions: freeze dried matrices, 75% RH atmosphere, 8 hours; for moisture uptake (percentage weight increase): FIG. 1
Protocol: Following lyophilisation the resultant freeze dried matrices were exposed to a 75% RH (Relative Humidity) atmosphere for a period of 8 hours. At intervals over this period, moisture uptake of each sample was measured gravimetrically and calculated as a percentage weight increase of the sample.

Row | SMILES | moisture uptake (percentage weight increase) | physical quality of sample after moisture exposure
1 | OC[C@@H](O)[C@@H](O)[C@H](O)[C@H](O)CO [mannitol] | no appreciable moisture uptake | –
2 | OC[C@H]1O[C@H](O[C@H]2O[C@H](CO)[C@@H](O)[C@H](O)[C@H]2O)[C@H](O)[C@@H](O)[C@@H]1O [trehalose] | significant moisture uptake | deterioration in the physical quality
